Source: patent US11452703B2, “Methods and compositions for reducing adipocyte numbers” (Peregrine Ophthalmic PTE LTD., priority 2020, dated 2022)

Tests used:
[1] = tested on: intraconal fat deposit adipocytes; assay: Short-term (7-day) adipocyte counts in intraconal fat after retrobulbar injection; type: in vivo; settings: rat, single retrobulbar injection, 25 μg/eye (DCA 2000 μg/eye), day 7 post-injection
Procedure: Free latanoprost, EggPC-latanoprost, and POPC-latanoprost were each introduced by retrobulbar injection into the orbit of the rat eye to ascertain its effect on intraconal fat deposits. As a positive control, deoxycholic acid (DCA; KYBELLA®) was also injected. DCA has been approved by the United States Food and Drug Administration for reducing fat cells in the chin.
Six rats were injected in a single eye for each of treatment. The contralateral eye of each animal was not injected, thus serving as a negative control.
The number of adipocytes present in the intraconal fat deposit at day 7 post-injection was counted by computer analysis of histopathology images and compared to the number of adipocytes in the contralateral un-injected eye. The results are shown in FIGS. 4A-4F and in Table 2 below.

[2] = tested on: intraconal orbital fat adipocytes; assay: 21-day retrobulbar injection into orbital fat, histology and image analysis; type: in vivo, Lewis rats (Rattus norvegicus); design: Area of Retrobulbar Fat complex, Percentage Increase treated vs naïve control eyes / Mean Density of Adipocytes, Percent Increase treated vs naïve control eyes / Adipocyte Cell Counts, Percentage Decrease treated vs naïve control eyes: concentration or dose not given beside the values; settings: rat; for Adipocyte Cell Counts, Treated Eyes Mean ± SEM / Area of Retrobulbar Fat complex, Treated Eyes Mean ± SEM / Mean Density of Adipocytes, Treated Eyes Mean ± SEM: 25 μg/eye (DCA 2000 μg/eye), day 21, n = 6; for Adipocyte Cell Counts, Percentage Decrease treated vs naïve control eyes / Area of Retrobulbar Fat complex, Percentage Increase treated vs naïve control eyes / Mean Density of Adipocytes, Percent Increase treated vs naïve control eyes: day 21
From the text: Free latanoprost, EggPC-latanoprost, POPC-latanoprost, and DCA were each introduced by retrobulbar injection into the orbit of the rat eye to ascertain its effect on intraconal fat deposits over a three-week period.
(§1) Twenty-four male Lewis rats (Rattus norvegicus) at 8-10 weeks of age were used in the study. Their weights at the start of the study ranged from 250-300 g.
(§2) Six rats were assigned to each of four groups at least one day prior to drug dosing using a selection designed to achieve similar group mean body weights. Animals in Groups A-D were weighed prior to injection and weekly thereafter.
(§3) Rats were anesthetized and a 30-gauge needle was used to inject the drugs into the retrobulbar space of the right orbit of each animal. The left orbit served as a contra-lateral control. All rats awoke from anesthesia without complication.
On Day 21, 3 weeks after injection, rats were euthanized by cardiac perfusion with 4% paraformaldehyde. After perfusion, each rat was decapitated and the head was placed in a 10% formalin solution for 2 days. Each orbit was carefully exenterated subperiosteally with a scalpel and placed back in 10% formalin solution for 1 day (6 orbits from 3 animals per group) and the remaining orbits were placed back in a 10% formalin solution for 2 weeks. Exenterated orbits were embedded in paraffin and cut into 5 μm sections. Sections centered around the intraconal fat and optic nerve were stained with hematoxylin-eosin for histologic examination by a trained ocular pathologist and a second observer in a blinded fashion.
Sections were examined histologically for optic nerve injury, atrophy of orbital fat, adipocyte density, and cytotoxicity evidenced by, e.g., adipocytolysis, blood vessel injury and repair, neutrophilic inflammation, lysis of locally present neutrophils, hemorrhage, lipid lake formation, and neovascularization.
The intraconal fat of the orbital sections were examined under light microscopy and images scanned for further analysis. The areas of intraconal orbital fat were cropped and the adipocytes counted using ImageJ software (Rasband W.S., US National Institutes of Health, Bethesda, Md.) to determine adipocyte density using a previously described method. See Park et al., 2011, Jpn. J. Ophthalmol. 55:22-27. The density of adipocytes in the intraconal orbital fat area was calculated and compared between groups via a 2-tailed Student t test.
Adipocyte size heterogeneity was analyzed in the cropped images of the intraconal fat light using a maximally stable extremal regions-based segmentation algorithm implemented in MATLAB (Mathworks, Natick, Mass.). A maximally stable extremal region algorithm entitled VL_FEAT was used to find extremal regions with parameters of delta=1, maximum variation=0.2, minimum diversity=0.5. Maximally stable extremal region-determined regions with sizes less than 10 pixels or eccentricity larger than 0.9 was discarded as false positives. The mean segmented adipocyte size for each image was calculated and the groups were compared using Student t test.

[3] = Intraocular pressure pre- and 3-week post retrobulbar injection; type: in vivo, Lewis rats (Rattus norvegicus); settings: rat, pre-injection vs 3 weeks post-injection
From the text: as §1, §2, §3
Intraocular pressure (TOP) measurements were taken pre- and 3-week post-injection of each eye of all 24 rats.

[4] = tested on: C/EBPα; assay: Quantitative real-time PCR of C/EBPα mRNA in adipocytes; type: cell-based; settings: adipocytes 9 or 15 days post differentiation, vs vehicle control
Procedure: (§4) Adipose-derived mesenchymal stem cells, i.e., pre-adipocytes, were cultured and differentiated into adipocytes following established protocols. Briefly, adipose derived mesenchymal stem cells were obtained from ATCC (PCS500011™, Manassas, Va.) and cultured in Mesenchymal Stem Cell Basal Medium (ATCC® PCS500030™) with Growth Kit (ATCC® PCS500040™) at 37° C. in 5% CO2. To induce differentiation, ADMSC cultures were grown to 70% to 80% confluence and the medium replaced by adipogenic differentiation medium (StemPro® Adipogenesis Differentiation Kit; Gibco Life Technologies™, USA). The medium was changed twice weekly.
(§5) Gene expression in the treated and untreated adipocytes was examined by quantitative real-time PCR analysis. Total RNA from adipocytes was isolated using the RNAzol® RT reagent (Molecular Research Center, Inc., Cincinnati, Ohio, USA) and reverse-transcribed using the QuantiTect reverse transcription kit (Qiagen Inc., Chatsworth, Calif., USA) according to the supplier's instructions. Messenger RNA expression of adipogenesis-promoting genes C/EBPα, PPARγ, and LPL were determined by quantitative analysis of real-time PCR (RT-PCR) using FastStart Universal SYBR Green Master Mix (Roche Applied Science) in a LightCycler® 480 Real-Time PCR System (Roche Applied Science, Germany). […]

[5] = tested on: PPARγ; assay: Quantitative real-time PCR of PPARγ mRNA in adipocytes; type: cell-based; settings: adipocytes 9 or 15 days post differentiation, vs vehicle control
Procedure: as §4, §5

[6] = tested on: LPL; assay: Quantitative real-time PCR of LPL mRNA in adipocytes; type: cell-based; settings: adipocytes 9 or 15 days post differentiation, vs vehicle control
Procedure: as §4, §5

[7] = tested on: inguinal fat pad; assay: In vivo fat reduction by direct injection into inguinal fat pads; settings: mice, single injection 100 μL containing 100 μg latanoprost, 7 days post-injection
Procedure: The ability of liposome-encapsulated latanoprost to reduce fat deposits in vivo was tested by direct injection into inguinal fat pads of mice.
Each of three animals were injected into one inguinal fat pad with 100 μL of vehicle, 100 μL containing 100 μg latanoprost, 100 μL of EggPC-latanoprost containing 100 μg latanoprost, or 100 μL of POPC-latanoprost containing 100 μg latanoprost. Seven days later, the mice were sacrificed and the weights of both the injected inguinal fat pad and the contralateral un-injected fat pad were measured.

| Compound | Adipocyte cell count reduction (percent reduction in total adipocyte number in intraconal fat deposit vs contralateral un-injected eye) [1] [%] | Adipocyte Cell Counts, Treated Eyes Mean ± SEM ([2]; retrobulbar injection) | Area of Retrobulbar Fat complex, Treated Eyes Mean ± SEM ([2]; retrobulbar injection) [mm^2] | Mean Density of Adipocytes, Treated Eyes Mean ± SEM ([2]; retrobulbar injection) [cells/mm^3] | Adipocyte Cell Counts, Percentage Decrease treated vs naïve control eyes ([2]; retrobulbar injection) [%] | Area of Retrobulbar Fat complex, Percentage Increase treated vs naïve control eyes ([2]; retrobulbar injection) [%] | Mean Density of Adipocytes, Percent Increase treated vs naïve control eyes ([2]; retrobulbar injection) [%] | Intraocular pressure (IOP) in injected eyes [3] | mRNA expression of adipogenesis-promoting gene C/EBPα [4] | mRNA expression of adipogenesis-promoting gene PPARγ [5] | mRNA expression of adipogenesis-promoting gene LPL [6] | weight reduction of injected inguinal fat pad as compared to un-injected contralateral fat pad [7] | heterogeneity among adipocytes in the intraconal space as compared to naïve contra-lateral control orbits ([2]; orbital injection, day 21, computer-aided morphological analysis) | change in the area of the retrobulbar fat complex after injection (significance) ([2]; retrobulbar injection, day 21, quantitative image analysis) |
| --- | --- | --- | --- | --- | --- | --- | --- | --- | --- | --- | --- | --- | --- | --- |
| C[C@H](CCC(=O)O)[C@H]1CC[C@H]2[C@@H]3CC[C@@H]4C[C@H](O)CC[C@]4(C)[C@H]3C[C@H](O)[C@]12C [DCA, deoxycholic acid] | 39.04 | 179 ± 47 | 0.167 ± 0.093 | 7606.21 ± 754.39 | 37 | 208 | 35 | significant increase | – | – | – | – | – | – |
| CC(C)OC(=O)CCC/C=C\C[C@@H]1[C@@H](CC[C@@H](O)CCc2ccccc2)[C@H](O)C[C@@H]1O [latanoprost] | 56.52 | 108 ± 52 | 0.131 ± 0.089 | 8574.68 ± 1456.73 | 61 | 283 | 58 | remained stable | suppressed expression | suppressed expression | suppressed expression | did not result in any weight reduction | more heterogeneity | significant increases |
